Laboratory results taken from BindingDB's records for doi:10.1016/j.bmcl.2005.03.029 (Duquesne University, 2005).

Molecular target: T1, Dihydrofolate reductase (Escherichia coli (strain K12), UniProt O30463+P0ABQ4)
T1 sequence (P0ABQ4 whole entry): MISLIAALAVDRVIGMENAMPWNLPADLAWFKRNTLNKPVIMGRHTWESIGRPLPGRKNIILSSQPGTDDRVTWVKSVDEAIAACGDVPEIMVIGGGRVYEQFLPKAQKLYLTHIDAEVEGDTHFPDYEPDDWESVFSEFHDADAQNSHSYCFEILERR
T1 sequence (O30463 whole entry): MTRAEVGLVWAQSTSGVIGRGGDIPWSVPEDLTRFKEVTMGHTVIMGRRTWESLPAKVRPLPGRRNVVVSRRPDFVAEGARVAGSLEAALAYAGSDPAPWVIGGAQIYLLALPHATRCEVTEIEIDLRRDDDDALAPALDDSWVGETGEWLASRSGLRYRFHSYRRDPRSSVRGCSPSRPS
Assay: Inhibitory concentration against Escherichia coli dihydrofolate reductase

Q: `CN(Cc1ccc2c(n1)C(N)N=C(N)N2)c1ccc(C(=O)NC(CCC(=O)O)C(=O)O)cc1` (stereo unspecified) [2-{4-[(2,4-Diamino-4,4a-dihydro-pyrido[3,2-d]pyrimidin-6-ylmethyl)-methyl-amino]-benzoylamino}-pentanedioic acid] was tested. Which IC50 did it give?
A: The IC50 was 660 µM.
